Settings: Liquid; for viscosity: 101.33 kPa, Concentric cylinders viscometry; for mass density: Vibrating tube method

CCOC(=O)CCCCC(=O)OCC [diethyl hexanedioate]
Settings | viscosity [mPa·s]
283.15 K | 4.57
288.15 K | 3.99
293.15 K | 3.51
298.15 K | 3.12
303.15 K | 2.79
308.15 K | 2.51
313.15 K | 2.28
318.15 K | 2.07
323.15 K | 1.9
328.15 K | 1.75
333.15 K | 1.61
338.15 K | 1.49
343.15 K | 1.39
348.15 K | 1.29
353.15 K | 1.21
358.15 K | 1.13
363.15 K | 1.06
368.15 K | 1
373.15 K | 0.94

CC(C)COC(=O)CCCCC(=O)OCC(C)C [diisobutyl adipate]
Settings | viscosity [mPa·s]
283.15 K | 8.56
288.15 K | 7.22
293.15 K | 6.17
298.15 K | 5.33
303.15 K | 4.65
308.15 K | 4.09
313.15 K | 3.63
318.15 K | 3.24
323.15 K | 2.92
328.15 K | 2.64
333.15 K | 2.4
338.15 K | 2.19
343.15 K | 2.01
348.15 K | 1.85
353.15 K | 1.71
358.15 K | 1.59
363.15 K | 1.48
368.15 K | 1.38
373.15 K | 1.29

Settings | mass density [kg/m3]
293.15 K, 100 kPa | 951.7
293.15 K, 10000 kPa | 958.4
293.15 K, 20000 kPa | 964.7
293.15 K, 30000 kPa | 970.6
293.15 K, 40000 kPa | 976.1
293.15 K, 50000 kPa | 981.4
293.15 K, 60000 kPa | 986.4
293.15 K, 70000 kPa | 991.2
293.15 K, 80000 kPa | 995.9
293.15 K, 90000 kPa | 1000.3
293.15 K, 100000 kPa | 1004.7
293.15 K, 110000 kPa | 1008.7
293.15 K, 120000 kPa | 1012.7
293.15 K, 130000 kPa | 1016.6
293.15 K, 140000 kPa | 1020.3
303.15 K, 100 kPa | 942.8
303.15 K, 10000 kPa | 949.9
303.15 K, 20000 kPa | 956.4
303.15 K, 30000 kPa | 962.6
303.15 K, 40000 kPa | 968.3
303.15 K, 50000 kPa | 974
303.15 K, 60000 kPa | 979.1
303.15 K, 70000 kPa | 984.2
303.15 K, 80000 kPa | 989
303.15 K, 90000 kPa | 993.4
303.15 K, 100000 kPa | 997.8
303.15 K, 110000 kPa | 1002.1
303.15 K, 120000 kPa | 1006.3
303.15 K, 130000 kPa | 1010.3
303.15 K, 140000 kPa | 1014
313.15 K, 100 kPa | 934.2
313.15 K, 10000 kPa | 941.6
313.15 K, 20000 kPa | 948.5
313.15 K, 30000 kPa | 954.9
313.15 K, 40000 kPa | 960.9
313.15 K, 50000 kPa | 966.6
313.15 K, 60000 kPa | 972.1
313.15 K, 70000 kPa | 977.2
313.15 K, 80000 kPa | 982
313.15 K, 90000 kPa | 986.7
313.15 K, 100000 kPa | 991.2
313.15 K, 110000 kPa | 995.6
313.15 K, 120000 kPa | 999.9
313.15 K, 130000 kPa | 1003.9
313.15 K, 140000 kPa | 1007.9
323.15 K, 100 kPa | 925.6
323.15 K, 10000 kPa | 933.4
323.15 K, 20000 kPa | 940.5
323.15 K, 30000 kPa | 947.3
323.15 K, 40000 kPa | 953.7
323.15 K, 50000 kPa | 959.7
323.15 K, 60000 kPa | 965.2
323.15 K, 70000 kPa | 970.6
323.15 K, 80000 kPa | 975.6
323.15 K, 90000 kPa | 980.5
323.15 K, 100000 kPa | 985.3
323.15 K, 110000 kPa | 989.8
323.15 K, 120000 kPa | 994.2
323.15 K, 130000 kPa | 998.3
323.15 K, 140000 kPa | 1003
333.15 K, 100 kPa | 916.7
333.15 K, 10000 kPa | 924.9
333.15 K, 20000 kPa | 932.4
333.15 K, 30000 kPa | 939.3
333.15 K, 40000 kPa | 945.8
333.15 K, 50000 kPa | 952
333.15 K, 60000 kPa | 957.8
333.15 K, 70000 kPa | 963.3
333.15 K, 80000 kPa | 968.5
333.15 K, 90000 kPa | 973.4
333.15 K, 100000 kPa | 978.2
333.15 K, 110000 kPa | 982.8
333.15 K, 120000 kPa | 987.3
333.15 K, 130000 kPa | 991.6
333.15 K, 140000 kPa | 995.7
343.15 K, 100 kPa | 908.1
343.15 K, 10000 kPa | 916.3
343.15 K, 20000 kPa | 924.3
343.15 K, 30000 kPa | 931.5
343.15 K, 40000 kPa | 938.3
343.15 K, 50000 kPa | 944.7
343.15 K, 60000 kPa | 950.8
343.15 K, 70000 kPa | 956.3
343.15 K, 80000 kPa | 961.8
343.15 K, 90000 kPa | 967
343.15 K, 100000 kPa | 971.8
343.15 K, 110000 kPa | 976.5
343.15 K, 120000 kPa | 981.1
343.15 K, 130000 kPa | 985.5
343.15 K, 140000 kPa | 989.7
353.15 K, 100 kPa | 899.3
353.15 K, 10000 kPa | 908
353.15 K, 20000 kPa | 916.2
353.15 K, 30000 kPa | 923.7
353.15 K, 40000 kPa | 930.9
353.15 K, 50000 kPa | 937.7
353.15 K, 60000 kPa | 943.9
353.15 K, 70000 kPa | 950
353.15 K, 80000 kPa | 955.5
353.15 K, 90000 kPa | 960.8
353.15 K, 100000 kPa | 965.7
353.15 K, 110000 kPa | 970.5
353.15 K, 120000 kPa | 974.9
353.15 K, 130000 kPa | 979.5
353.15 K, 140000 kPa | 983.7
363.15 K, 100 kPa | 890.2
363.15 K, 10000 kPa | 899.9
363.15 K, 20000 kPa | 908.7
363.15 K, 30000 kPa | 916.4
363.15 K, 40000 kPa | 923.7
363.15 K, 50000 kPa | 930.4
363.15 K, 60000 kPa | 936.9
363.15 K, 70000 kPa | 943.2
363.15 K, 80000 kPa | 948.9
363.15 K, 90000 kPa | 954.1
363.15 K, 100000 kPa | 959.4
363.15 K, 110000 kPa | 964.4
363.15 K, 120000 kPa | 969
363.15 K, 130000 kPa | 973.7
363.15 K, 140000 kPa | 978.1
373.15 K, 100 kPa | 882.3
373.15 K, 10000 kPa | 891.5
373.15 K, 20000 kPa | 900.5
373.15 K, 30000 kPa | 908.6
373.15 K, 40000 kPa | 916.5
373.15 K, 50000 kPa | 923.3
373.15 K, 60000 kPa | 930.1
373.15 K, 70000 kPa | 936.4
373.15 K, 80000 kPa | 942.2
373.15 K, 90000 kPa | 947.8
373.15 K, 100000 kPa | 953.2
373.15 K, 110000 kPa | 958.2
373.15 K, 120000 kPa | 963.2
373.15 K, 130000 kPa | 967.8
373.15 K, 140000 kPa | 972.5
383.15 K, 100 kPa | 873.2
383.15 K, 10000 kPa | 883.6
383.15 K, 20000 kPa | 893.1
383.15 K, 30000 kPa | 901.7
383.15 K, 40000 kPa | 909.6
383.15 K, 50000 kPa | 916.6
383.15 K, 60000 kPa | 923.5
383.15 K, 70000 kPa | 929.4
383.15 K, 80000 kPa | 935.7
383.15 K, 90000 kPa | 941.2
383.15 K, 100000 kPa | 946.7
383.15 K, 110000 kPa | 951.8
383.15 K, 120000 kPa | 957
383.15 K, 130000 kPa | 961.5
383.15 K, 140000 kPa | 966.1
393.15 K, 100 kPa | 864.7
393.15 K, 10000 kPa | 875.3
393.15 K, 20000 kPa | 885.1
393.15 K, 30000 kPa | 893.9
393.15 K, 40000 kPa | 902.1
393.15 K, 50000 kPa | 909.5
393.15 K, 60000 kPa | 916.6
393.15 K, 70000 kPa | 923.2
393.15 K, 80000 kPa | 929.5
393.15 K, 90000 kPa | 935.3
393.15 K, 100000 kPa | 941.1
393.15 K, 110000 kPa | 946.2
393.15 K, 120000 kPa | 951.4
393.15 K, 130000 kPa | 956.3
393.15 K, 140000 kPa | 960.9
403.15 K, 100 kPa | 856.8
403.15 K, 10000 kPa | 867.3
403.15 K, 20000 kPa | 877.3
403.15 K, 30000 kPa | 886.5
403.15 K, 40000 kPa | 894.8
403.15 K, 50000 kPa | 902.7
403.15 K, 60000 kPa | 909.9
403.15 K, 70000 kPa | 916.6
403.15 K, 80000 kPa | 923.3
403.15 K, 90000 kPa | 929.4
403.15 K, 100000 kPa | 935
403.15 K, 110000 kPa | 940.3
403.15 K, 120000 kPa | 945.5
403.15 K, 130000 kPa | 950.6
403.15 K, 140000 kPa | 955.4

— the NIST ThermoML archive (doi:10.1021/je100237h)
